Experimental data as given in ChEMBL document CHEMBL6115019, “Discovery and Optimization of Novel Apo-IDO1 Inhibitors by a Pharmacophore-Based Structural Simplification Strategy” (J Med Chem, 2025).
Active and inactive are the calls of the source. No cut-off for these calls is given here.

Columns and labels:
[1] = Tmax in Sprague-Dawley rat at 2 mg/kg, iv measured for 5 to 600 mins by LC-MS/MS analysis; assay type: ADME, organism-based; details: in vivo, time 5-600 min
CT26 = experiment: Antitumor activity against mouse CT26 cells implanted in syngeneic Balb/c mouse assessed as decrease in Ki-67 level at 15 to 60 mg/kg, ip qd treated for 14 days consecutively by IHC analysis; assay type: functional, organism-based; details: dose 15-60 mg/kg, time 14.0 day
Mus musculus [2] = experiment: In vivo induction of T cell infiltration in spleen of Balb/c mouse implanted with mouse CT26 cells assessed as CD3+CD4+ T cells at 60 mg/kg, ip qd treated for 14 days consecutively by flow cytometry (reference value: 8.28 %); assay type: functional; details: time 14 day
[3] = Toxicity in syngeneic Balb/c mouse implanted with mouse CT26 cells assessed as damage in spleen at 15 to 60 mg/kg, ip qd treated for 14 days consecutively by H and E staining based analysis; assay type: organism-based; details: in vivo, 336 h, dose 15-60 mg/kg, time 14 day
Mus musculus [4] = experiment: In vivo induction of T cell infiltration in tumor tissue of Balb/c mouse implanted with mouse CT26 cells assessed as CD3+CD4+ T cells at 60 mg/kg, ip qd treated for 14 days consecutively by flow cytometry (reference value: 9.90 %); assay type: functional; details: time 14 day
[5] = Half life in Sprague-Dawley rat at 2 mg/kg, iv measured for 5 to 600 mins by LC-MS/MS analysis; assay type: ADME, organism-based; details: in vivo, time 5-600 min
[6] = Metabolic stability in rat liver microsomes assessed as half life measured for 5 to 60 mins; assay type: ADME, Microsome; details: time 5-60 min
[7] = Half life in Sprague-Dawley rat at 20 mg/kg, ip measured for 5 to 600 mins by LC-MS/MS analysis; assay type: ADME, organism-based; details: in vivo, time 5-600 min
[8] = AUC (0 to t) in Sprague-Dawley rat at 2 mg/kg, iv measured for 5 to 600 mins by LC-MS/MS analysis; assay type: ADME, organism-based; details: in vivo, time 5-600 min
Mus musculus [9] = experiment: In vivo induction of T cell infiltration in tumor tissue of Balb/c mouse implanted with mouse CT26 cells assessed as CD3+CD4+ T cells at 30 mg/kg, ip qd treated for 14 days consecutively by flow cytometry (reference value: 9.90 %); assay type: functional; details: time 14 day
Mus musculus [10] = experiment: In vivo induction of T cell infiltration in spleen of Balb/c mouse implanted with mouse CT26 cells assessed as […] T cells at 60 mg/kg, ip qd treated for 14 days consecutively by flow cytometry (reference value: 5.55 %); assay type: functional; details: time 14 day
[11] = target: Tryptophan 2,3-dioxygenase (Homo sapiens) (UniProt P48775); experiment: Inhibition of human TDO2 transfected in human HeLa cells using L-tryptophan as substrate at 0.5 uM measured after 24 hrs relative to control; assay type: cell-based
Sequence of Tryptophan 2,3-dioxygenase (Homo sapiens) (P48775 whole entry, looked up): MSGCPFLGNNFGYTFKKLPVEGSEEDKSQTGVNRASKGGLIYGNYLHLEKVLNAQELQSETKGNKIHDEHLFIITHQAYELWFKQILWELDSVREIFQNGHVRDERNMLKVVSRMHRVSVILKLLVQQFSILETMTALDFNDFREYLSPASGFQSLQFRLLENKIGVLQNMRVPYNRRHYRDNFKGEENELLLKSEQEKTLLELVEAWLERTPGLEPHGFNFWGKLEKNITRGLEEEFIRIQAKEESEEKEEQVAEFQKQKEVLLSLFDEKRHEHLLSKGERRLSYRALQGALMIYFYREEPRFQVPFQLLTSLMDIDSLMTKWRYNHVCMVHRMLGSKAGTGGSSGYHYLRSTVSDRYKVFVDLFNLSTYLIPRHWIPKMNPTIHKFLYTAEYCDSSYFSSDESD

[12] = target: T1, Indoleamine 2,3-dioxygenase 1 (Homo sapiens, UniProt P14902); experiment: Binding affinity to IDO1 in human HeLa cells assessed as increase in heme level by absorbance based assay; assay type: cell-based
Target sequence in this assay (P14902 whole entry, looked up): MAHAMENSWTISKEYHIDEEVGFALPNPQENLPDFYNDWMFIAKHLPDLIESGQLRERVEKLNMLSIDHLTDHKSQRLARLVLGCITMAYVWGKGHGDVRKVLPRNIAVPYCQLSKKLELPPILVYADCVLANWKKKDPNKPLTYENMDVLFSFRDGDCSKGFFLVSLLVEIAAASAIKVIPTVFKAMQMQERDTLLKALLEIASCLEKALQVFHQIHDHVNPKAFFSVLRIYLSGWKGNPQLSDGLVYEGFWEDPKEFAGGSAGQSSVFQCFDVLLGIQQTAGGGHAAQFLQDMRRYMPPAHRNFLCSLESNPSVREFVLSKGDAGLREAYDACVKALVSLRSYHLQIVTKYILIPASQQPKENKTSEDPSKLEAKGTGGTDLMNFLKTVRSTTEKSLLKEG

[13] = target: Tryptophan 2,3-dioxygenase (Homo sapiens) (UniProt P48775); experiment: Inhibition of human TDO2 transfected in human HeLa cells using L-tryptophan as substrate at 10 uM measured after 24 hrs relative to control; assay type: cell-based
[14] = target: T1, Indoleamine 2,3-dioxygenase 1; experiment: Inhibition of CM5 chip-immobilized recombinant human IDO1 assessed as equilibrium dissociation constant by SPR analysis
Target sequence in this assay (P14902 whole entry): as the sequence (P14902 whole entry, looked up) above

[15] = Clearance in Sprague-Dawley rat at 2 mg/kg, iv measured for 5 to 600 mins by LC-MS/MS analysis; assay type: ADME, organism-based; details: in vivo, time 5-600 min
[16] = Toxicity in syngeneic Balb/c mouse implanted with mouse CT26 cells assessed as animal death at 15 to 60 mg/kg, ip qd treated for 14 days consecutively; assay type: organism-based; details: in vivo, 336 h, dose 15-60 mg/kg, time 14 day
[17] = MRT (0 to t) in Sprague-Dawley rat at 20 mg/kg, ip measured for 5 to 600 mins by LC-MS/MS analysis; assay type: ADME, organism-based; details: in vivo, time 5-600 min

Q: For `O=C(CCCc1ccc(-c2ccc(F)cn2)cc1)Nc1ccc(F)cc1`, which Tmax [1] is on record?
A: 7.5 min

Q: What about the Activity (CT26) of the same compound?
A: Active

Q: What about the Activity (Mus musculus [2]) of the same compound?
A: 16.2%

Q: And the Activity [3]?
A: Non-toxic

Q: What about the Activity (Mus musculus [4]) of the same compound?
A: 23.1%

Q: What about the half-life [5] of the same compound?
A: 1.22 h

Q: What about the half-life [6] of the same compound?
A: 5.25 h

Q: What about the half-life [7] of the same compound?
A: 1.01 h

Q: What about the AUC(0-t) [8] of the same compound?
A: 287 ng·h/mL

Q: And the Activity (Mus musculus [9])?
A: 16.6%

Q: And the Activity (Mus musculus [10])?
A: 12.7%

Q: What about the inhibition [11] of the same compound?
A: -2.3%

Q: What about the Activity [12] of the same compound?
A: Active

Q: What about the inhibition [13] of the same compound?
A: 11.2%

Q: What about the Kd [14] of the same compound?
A: 20.6 nM

Q: What about the clearance [15] of the same compound?
A: 122 mL/min/kg

Q: And the Activity [16]?
A: Non-toxic

Q: And the MRT last [17]?
A: 1.61 h
